# Source: patent US11884747B2, “Compstatin analogs with increased solubility and improved pharmacokinetic properties” (The Trustees of the University of Pennsylvania, priority 2018, dated 2024)
# Values joined by “and” are separate entries in the source; they are usually repeats but may differ in a detail not shown here. Identical values can stand only once. “Also recorded” adds a separate entry of the source.
# Experiments:
# [1] = tested on: classical pathway of complement; test: Classical pathway complement inhibition ELISA (C3b deposition) in normal human plasma; format: biochemical; details: human plasma diluted 1:40; mean of at least three experiments
# Method: For this purpose, microtiter wells (NUNC) were coated with 50 μl of 1% ovalbumin in PBS (pH 7.4) at ambient temperature for 2 h. The wells were blocked with 200 μl of 1% BSA in PBS for 1 h, then coated with 50 μl of 1:1000 α-ovalbumin polyclonal antibody in PBS for 1 h. Between each step, the plate was washed thrice with 200 μl of 0.05% Tween 20 in PBS (PBS-T); 30 μl of VBS (Veronal buffer 1×; 5 mM veronal, pH 7.4, containing 150 mM NaCl, 0.5 mM CaCl2 and 0.5 mM MgCl2) were placed in all but the first well of each row of the 96-well plate, and 5 μM peptide solutions in VBS were prepared. […] Human plasma diluted 1:40 in VBS was incubated for 15 min with peptide of 0.005 to 2.5 μM. After washing with PBS-T, 50 μl/well of 1:1000 goat a-human C3 HRP conjugated antibody in 1% BSA in PBS was added to the wells and incubated for 1 h at room temperature. Complement fixation indicating activation was detected by the addition of HRP substrate (0.05% ABTS and 0.1% of 30% aqueous H2O2 in 0.1 M sodium citrate, pH 4.2) and read at 405 nm. The absorbance data obtained at 405 nm were translated into % inhibition, considering 100% to be equal to complement activation in the absence of peptide. The percent inhibition was plotted against the logarithm of concentrations, and the resulting data set was fitted to the equation “log(inhibitor) vs. normalized response” using GraphPad Prism 5 (La Jolla, CA). IC50 values were obtained from the fitted parameters of the mean of at least three independent experiments. Cp40 was always used as the internal control.
# human C3b = target: T1, human C3b (Homo sapiens, UniProt P01024); test: SPR binding affinity and kinetic profile with immobilized C3b; details: for kd, dissociation constant / Kd / ka, association constant: 25 °C; for kd, dissociation constant / ka, association constant: 1:1 Langmuir model; for Kd: KD=kd/ka, read-out: KD, equilibrium dissociation constant
# T1 construct: purchased Complement Technology, Inc., Tyler, TX
# [2] = Residence time in the vitreous after single intravitreal injection (WES and SPR competition assay); format: in vivo, cynomolgus monkeys
# Method: To determine the residence time of mPEG(3 k)-Cp40, mPEG(1 k)-Cp40, Cp40-KK, and Cp40-KKK in the vitreous of cynomolgus macaques, these Cp40-based analogs were administered intravitreally (i.v.t.) to the animals after induction of light ketamine anesthesia (10-15 mg/kg, by intramuscular injection (i.m.)) and dilation of the pupils with tropicamide/phenylephrine ophthalmic solution (see Table 6 for study design).
# For i.v.t. injection, the cynomolgus monkeys were anesthetized with a combination of ketamine (15-25 mg/kg, i.m.) and xylazine (2 mg/kg, i.m.) and the eye was cleaned with povidone-iodine solution. After application of oxybuprocaine hydrochloride solution (Benoxil® ophthalmic solution 0.4%) to the cornea as a local anesthetic, the Cp40-based analogs were administered to the animals by i.v.t. injection into either the right (G1, G3) or left (G2, G4) eye of each animal. Immediately following each injection, a single topical dose of 0.5% levofloxacin was administered. After i.v.t. injection of mPEG(3 k)-Cp40, mPEG(1 k)-Cp40, Cp40-KK, and Cp40-KKK, vitreous fluid samples (about 50 μL each) were withdrawn from Cp40-based analog-treated eyes on days 14, 28, 42, (G1, G2, G3, G4), 56, 73, 90 (G1, G2) (this was done either three times or six times). Samples were collected on ice and stored in a deep freezer (˜79.3 to −68.5° C.) until further analysis. […] Presence and concentration of the Cp40-based analogs was determined using either the simple western technology (WES, ProteinSimple, San Jose, CA), or surface plasmon resonance (SPR)-based real-time measurement of binding kinetics on a Cp40-KKK immobilized chip (see detailed methods below). Similar results with regard to the intravitreal residence time and concentration levels of the test compounds were obtained regardless of the quantification method selected.
# To quantify the levels of all test compounds in vitreous samples collected at different time points following i.v.t. injection (see FIG. 15), WES analysis was performed on a WES instrument (ProteinSimple, San Jose, CA) using a 2 to 40 kDa Separation Module and Anti-Rabbit Detection Module according to the manufacturers' instructions. […] The resulting electropherograms were evaluated using the Compass software (ProteinSimple, San Jose, CA). The following criteria were used to discriminate low peptide signals from background: The peak signal-to-noise (S/N) ratio given by the software must be ≥10, and the peak height/baseline ratio (calculated manually from the peak height and baseline values given by the software) must be equal to or greater than 3. […] Shown in FIG. 15 is a representative standard curve generated using the WES system and bands obtained upon running pre-determined amounts of purified peptide spiked into rabbit vitreous samples. […]
# [3] = tested on: complement classical pathway; test: Classical pathway activation (C3b deposition) ELISA in human plasma with or without rabbit vitreous; format: biochemical; details: in the absence of vitreous
# Method: An alternative explanation to the one presented above is that the vitreous contains additional unidentified factors that associate with the Cp40-KKK analog. To investigate whether an unidentified vitreous factor impacts the complement inhibitory activity of lysine containing compounds, complement activation assays were performed using vitreous samples. Briefly, human plasma was incubated with OVA-anti-OVA immune-complexes in the presence of serial dilutions of the Cp40-based analogs mixed with rabbit vitreous. Levels of classical pathway activation (C3b deposition) were determined by ELISA using a polyclonal anti-human C3 antibody conjugated with HRP (MP Biomedicals, Solon, OH) (FIG. 20).
# [4] = for pH of the peptide solution in PBS: at the stated concentration, indicator paper
# C3 = details: Qu et al. (2013); cited from earlier work
# [5] = Pharmacokinetics in NHP plasma after single s.c. injection, with plasma C3 levels
# [6] = Pharmacokinetics after single i.v. injection; format: in vivo, cynomolgus monkeys
# Method: FIG. 11 show graphs of peptide concentration over time in cynomolgus monkeys to which was administered a single 2 mg/kg intravenous injection of Cp40-KK (panel a), Cp40-KKK (panel b), mPEG(1 k)-Cp40 (panel c), and mPEG(3 k)-Cp40 (panel d). […]
# In vivo pharmacokinetic studies were conducted, in which cynomolgus monkeys were administered single i.v. injections of mPEG(1 k)-Cp40, mPEG(3 k)-Cp40, Cp40-KK, or Cp40-KKK.
# T1 sequence (P01024 23-667 limits assumed): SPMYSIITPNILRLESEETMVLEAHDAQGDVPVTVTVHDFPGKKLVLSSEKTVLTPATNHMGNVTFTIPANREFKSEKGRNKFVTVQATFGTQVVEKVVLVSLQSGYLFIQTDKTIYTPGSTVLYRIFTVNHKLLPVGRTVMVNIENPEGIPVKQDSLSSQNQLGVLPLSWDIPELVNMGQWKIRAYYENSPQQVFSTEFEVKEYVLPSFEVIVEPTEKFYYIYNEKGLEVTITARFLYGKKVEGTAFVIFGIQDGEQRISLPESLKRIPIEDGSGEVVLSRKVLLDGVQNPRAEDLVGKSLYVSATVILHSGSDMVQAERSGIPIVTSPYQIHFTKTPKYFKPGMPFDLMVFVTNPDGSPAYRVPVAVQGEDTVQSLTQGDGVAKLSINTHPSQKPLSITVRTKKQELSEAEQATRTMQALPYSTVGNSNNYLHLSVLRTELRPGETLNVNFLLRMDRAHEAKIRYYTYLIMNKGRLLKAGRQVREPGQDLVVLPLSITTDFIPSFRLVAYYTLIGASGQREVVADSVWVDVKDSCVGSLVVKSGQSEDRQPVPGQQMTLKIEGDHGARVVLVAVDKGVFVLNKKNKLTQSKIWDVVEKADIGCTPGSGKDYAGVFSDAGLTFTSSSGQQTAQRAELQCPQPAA
# T1 sequence (P01024 749-1663 partner limits assumed): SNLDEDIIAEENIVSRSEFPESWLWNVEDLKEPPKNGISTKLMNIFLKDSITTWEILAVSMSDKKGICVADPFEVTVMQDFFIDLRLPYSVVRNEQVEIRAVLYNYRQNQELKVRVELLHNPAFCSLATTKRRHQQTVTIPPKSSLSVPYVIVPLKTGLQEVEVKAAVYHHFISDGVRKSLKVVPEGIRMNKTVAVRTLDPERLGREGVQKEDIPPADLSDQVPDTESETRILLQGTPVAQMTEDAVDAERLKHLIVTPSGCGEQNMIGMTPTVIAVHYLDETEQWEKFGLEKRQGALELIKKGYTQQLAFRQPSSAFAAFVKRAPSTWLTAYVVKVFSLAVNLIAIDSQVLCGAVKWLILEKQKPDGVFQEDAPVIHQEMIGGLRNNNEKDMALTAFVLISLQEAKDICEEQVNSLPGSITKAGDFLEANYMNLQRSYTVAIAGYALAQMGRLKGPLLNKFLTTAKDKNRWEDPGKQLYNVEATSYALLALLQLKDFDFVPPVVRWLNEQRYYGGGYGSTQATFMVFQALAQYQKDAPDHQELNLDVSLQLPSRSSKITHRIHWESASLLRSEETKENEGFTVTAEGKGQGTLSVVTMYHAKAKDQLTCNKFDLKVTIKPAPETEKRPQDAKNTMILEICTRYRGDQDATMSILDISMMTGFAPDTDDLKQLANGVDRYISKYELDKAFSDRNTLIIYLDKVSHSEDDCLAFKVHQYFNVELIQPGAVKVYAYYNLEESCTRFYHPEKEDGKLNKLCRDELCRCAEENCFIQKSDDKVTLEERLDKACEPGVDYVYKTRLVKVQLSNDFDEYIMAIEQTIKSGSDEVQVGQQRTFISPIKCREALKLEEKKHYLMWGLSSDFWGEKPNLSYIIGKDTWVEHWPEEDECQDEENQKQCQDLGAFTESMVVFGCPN
Compound,IC50 [1],"kd, dissociation constant (human C3b)",Kd (human C3b),detection in vitreous ([2]; 100 μg i.v.t.),complement classical pathway inhibitory activity [3],pH of the peptide solution in PBS [4],binding affinity for C3 (C3),binding affinity for C3 higher than that of the parent peptide (C3),"C3 saturation time (peptide above plasma level of C3) ([5]; single s.c. 2 mg/kg, 2 mg/kg)",in vivo Lys cleavage in plasma ([6]; after i.v. injection),"AUC(0-t) ([6]; cynomolgus monkey, plasma, iv, 2 mg/kg, single i.v. injection, read-out: AUC0-120h)","detection in vitreous over time ([2]; single i.v.t. 500 μg, days 14-90)","in vivo Lys cleavage in plasma ([5]; after s.c. injection, UPLC-ESI-MS)",C3 saturation time (peptide above plasma level of C3) ([5]; single s.c. 2 mg/kg),"CL/F, apparent clearance ([5]; single s.c. 2 mg/kg, SUM for Lys analogs, 2 mg/kg)",drop in the binding affinity toward C3b vs Cp40 (human C3b),"ka, association constant (human C3b)","Conc. (mg/ml), solubility in PBS ([4]; pH 7.4)"
"CC[C@H](C)[C@H](NC(=O)[C@H](N)Cc1ccc(O)cc1)C(=O)N[C@H]1CSSC[C@@H](C(=O)N(C)[C@H](C(N)=O)[C@@H](C)CC)NC(=O)[C@H](CCCNC(=N)N)NC(=O)[C@H](Cc2c[nH]cn2)NC(=O)[C@H](C)NC(=O)CN(C)C(=O)[C@H](Cc2c[nH]c3ccccc23)NC(=O)[C@H](CC(=O)O)NC(=O)[C@H](CCC(N)=O)NC(=O)[C@H](Cc2cn(C)c3ccccc23)NC(=O)[C@H](C(C)C)NC1=O [Cp40, DTyr-Ile-[Cys-Val-Trp(Me)-Gln-Asp-Trp-Sar-Ala-His-Arg-Cys]-mIle-NH2, reference compound]",56.8 ± 3 nM,1.84 ± 0.40 10^−3s^−1,0.53 ± 0.14 nM,no detection of any compound was observed after one month,inhibitory activity in a dose-dependent manner,7.5,subnanomolar,"~6,000 fold",4 to 5 h and ~4.5 h,–,–,–,–,–,–,–,–,–
"CC[C@H](C)[C@H](NC(=O)[C@H](N)Cc1ccc(O)cc1)C(=O)N[C@H]1CSSC[C@@H](C(=O)N(C)[C@H](C(=O)N[C@@H](CCCCN)C(N)=O)[C@@H](C)CC)NC(=O)[C@H](CCCNC(=N)N)NC(=O)[C@H](Cc2c[nH]cn2)NC(=O)[C@H](C)NC(=O)CN(C)C(=O)[C@H](Cc2c[nH]c3ccccc23)NC(=O)[C@H](CC(=O)O)NC(=O)[C@H](CCC(N)=O)NC(=O)[C@H](Cc2cn(C)c3ccccc23)NC(=O)[C@H](C(C)C)NC1=O [Cp40-K, DTyr-Ile-[Cys-Val-Trp(Me)-Gln-Asp-Trp-Sar-Ala-His-Arg-Cys]-mlle-Lys—NH2]",95.6 ± 9.2 nM,1.85 ± 0.50 10^−3s^−1,0.92 ± 0.2 nM,–,inhibitory activity in a dose-dependent manner,7.5,–,–,–,–,–,–,–,–,–,–,–,–
"CC[C@H](C)[C@H](NC(=O)[C@H](N)Cc1ccc(O)cc1)C(=O)N[C@H]1CSSC[C@@H](C(=O)N(C)[C@H](C(=O)N[C@@H](CCCCN)C(=O)N[C@@H](CCCCN)C(N)=O)[C@@H](C)CC)NC(=O)[C@H](CCCNC(=N)N)NC(=O)[C@H](Cc2c[nH]cn2)NC(=O)[C@H](C)NC(=O)CN(C)C(=O)[C@H](Cc2c[nH]c3ccccc23)NC(=O)[C@H](CC(=O)O)NC(=O)[C@H](CCC(N)=O)NC(=O)[C@H](Cc2cn(C)c3ccccc23)NC(=O)[C@H](C(C)C)NC1=O [Cp40-KK, DTyr-Ile-[Cys-Val-Trp(Me)-Gln-Asp-Trp-Sar-Ala-His-Arg-Cys]-mIle-Lys-Lys—NH2]",61.8 ± 4.2 nM,1.52 ± 0.25 10^−3s^−1,0.44 ± 0.17 nM,–,inhibitory activity in a dose-dependent manner,7-7.5,–,–,–,metabolized to minimal amounts of Cp40-K,85.2 µM·h,no longer detected on day 90,"Cp40-K was also detected in the NHP plasma samples, beginning at 30 min after sc injection; also recorded: cleaved in vivo generating minimal amounts of Cp40-K",2.5 to 5 h,3348 ((mg/kg)/(μM · h) and 2648 ((mg/kg)/(μM · h),–,–,–
CC[C@H](C)[C@H](NC(=O)[C@@H](Cc1ccc(O)cc1)NC(=O)CCOCCOCCOCCOCCOCCOCCOCCOCCOCCOCCOCCOC)C(=O)N[C@H]1CSSC[C@@H](C(=O)N(C)[C@H](C(N)=O)[C@@H](C)CC)NC(=O)[C@H](CCCNC(=N)N)NC(=O)[C@H](Cc2c[nH]cn2)NC(=O)[C@H](C)NC(=O)CN(C)C(=O)[C@H](Cc2c[nH]c3ccccc23)NC(=O)[C@H](CC(=O)O)NC(=O)[C@H](CCC(N)=O)NC(=O)[C@H](Cc2cn(C)c3ccccc23)NC(=O)[C@H](C(C)C)NC1=O [mPEG(528)-Cp40],83.5 ± 8.1 nM,2.45 ± 0.28 10^−3s^−1,2.58 ± 0.51 nM,–,–,7-7.5,–,–,–,–,–,–,–,–,–,5 fold,1.00 ± 0.27 10^6M^−1s^−1,2.3 mg/mL
CC[C@H](C)[C@H](NC(=O)[C@@H](Cc1ccc(O)cc1)NC(=O)CCOCCOCCOCCOCCOCCOCCOCCOCCOCCOCCOCCOCCOCCOCCOCCOCCOCCOCCOCCOCCOCCOCCOCCOC)C(=O)N[C@H]1CSSC[C@@H](C(=O)N(C)[C@H](C(N)=O)[C@@H](C)CC)NC(=O)[C@H](CCCNC(=N)N)NC(=O)[C@H](Cc2c[nH]cn2)NC(=O)[C@H](C)NC(=O)CN(C)C(=O)[C@H](Cc2c[nH]c3ccccc23)NC(=O)[C@H](CC(=O)O)NC(=O)[C@H](CCC(N)=O)NC(=O)[C@H](Cc2cn(C)c3ccccc23)NC(=O)[C@H](C(C)C)NC1=O [mPEG(1056)-Cp40],52 ± 2.7 nM,2.80 ± 0.95 10^−3s^−1,3.93 ± 0.39 nM,–,–,7-7.5,–,–,–,–,–,–,–,–,–,–,0.72 ± 0.25 10^6M^−1s^−1,–
